Experimental data reported in ChEMBL document CHEMBL1201862, “PubChem BioAssay data set” (2004).
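Growth conditions: 96-well plates. Treatment: test compound, 48 hours, 5 concentrations. Analysis: linear interpolation between bracketing concentrations; unreached endpoints set to highest concentration. GI50 = concentration required for 50% inhibition of growth.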 Activity calls are given as the source filed them. Cut-off read from the data, not from the text of the source: active = GI50 up to about 1.1 µM and inactive = higher.

What was measured:
Experiment in all cases: DTP human tumour cell line panel, 48 h
[1] = tested on: RPMI-8226
[2] = tested on: SNB-75
[3] = tested on: COLO 205
[4] = tested on: SF-539
[5] = tested on: MDA-MB-435
[6] = tested on: A549
[7] = tested on: RXF 393
[8] = tested on: M14
[9] = tested on: K562
[10] = tested on: Malme-3M
[11] = tested on: OVCAR-4
[12] = tested on: CCRF-CEM
[13] = tested on: KM12
[14] = tested on: MCF7
[15] = tested on: UO-31
[16] = tested on: 786-0
[17] = tested on: TK-10
[18] = tested on: MDA-MB-231
[19] = tested on: SK-MEL-2
[20] = tested on: NCI-H522

SMILES | GI50 [1] | GI50 [2] | GI50 [3] | GI50 [4] | GI50 [5] | GI50 [6] | GI50 [7] | GI50 [8] | GI50 [9] | GI50 [10] | GI50 [11] | GI50 [12] | GI50 [13] | GI50 [14] | GI50 [15] | GI50 [16] | GI50 [17] | GI50 [18] | GI50 [19] | GI50 [20]
Nc1ccccc1SCc1csc(-c2ccc(Cl)cc2)n1 | 12.7 µM (inactive) | 46.7 µM (inactive) | 18 µM (inactive) | 22.2 µM (inactive) | 18.2 µM (inactive) | 24.5 µM (inactive) | 24.5 µM (inactive) | 17.4 µM (inactive) | 16.6 µM (inactive) | 20.3 µM (inactive) | 21.8 µM (inactive) | 5.37 µM (inactive) | 20 µM (inactive) | 23.8 µM (inactive) | 15.8 µM (inactive) | 19.9 µM (inactive) | 38.1 µM (inactive) | 21.3 µM (inactive) | 16.4 µM (inactive) | 10.7 µM (inactive)
Cc1ccc(C)n1-c1ccccc1C1C=CN(C(=O)OC(C)(C)C)C=C1 | 20.4 µM (inactive) | 13.5 µM (inactive) | 17.2 µM (inactive) | 46.3 µM (inactive) | 36.2 µM (inactive) | 31.1 µM (inactive) | 19.6 µM (inactive) | 28.8 µM (inactive) | 32.3 µM (inactive) | 15.7 µM (inactive) | 71.4 µM (inactive) | 35.3 µM (inactive) | 14.9 µM (inactive) | 17.4 µM (inactive) | 33.1 µM (inactive) | 31.8 µM (inactive) | 67.3 µM (inactive) | 19.7 µM (inactive) | 16.9 µM (inactive) | 16.6 µM (inactive)
CC(O)c1cc2c(s1)C(=O)c1c(C(C)O)csc1C2=O (stereo not given) | 0.15 µM (active) | 0.316 µM (active) | 1.28 µM (inactive) | 0.21 µM (active) | 0.0252 µM (active) | 0.184 µM (active) | 0.187 µM (active) | 0.126 µM (active) | 0.139 µM (active) | 0.0329 µM (active) | 0.177 µM (active) | 0.173 µM (active) | 0.249 µM (active) | 0.0573 µM (active) | 0.316 µM (active) | 0.392 µM (active) | 0.544 µM (active) | 0.063 µM (active) | 0.148 µM (active) | 0.305 µM (active)
O=C(O)Cc1ccccc1 [PHENYLACETIC ACID] | > 100 µM (inactive) | > 100 µM (inactive) | > 100 µM (inactive) | > 100 µM (inactive) | > 100 µM (inactive) | > 100 µM (inactive) | > 100 µM (inactive) | > 100 µM (inactive) | > 100 µM (inactive) | > 100 µM (inactive) | > 100 µM (inactive) | > 100 µM (inactive) | > 100 µM (inactive) | > 1000 µM (inactive) | > 100 µM (inactive) | > 100 µM (inactive) | > 100 µM (inactive) | > 100 µM (inactive) | > 100 µM (inactive) | > 100 µM (inactive)
COc1ccc2nc3c([N+](=O)[O-])ccc(NCCCN(C)C)c3c(N)c2c1 | 1.15 µM (inactive) | 1.66 µM (inactive) | 0.764 µM (active) | 1.78 µM (inactive) | 1.77 µM (inactive) | 1.49 µM (inactive) | 1.29 µM (inactive) | 1.9 µM (inactive) | 0.41 µM (active) | 1.42 µM (inactive) | 1.5 µM (inactive) | 0.245 µM (active) | 1.51 µM (inactive) | 1.15 µM (inactive) | 2.14 µM (inactive) | 1.22 µM (inactive) | 1.62 µM (inactive) | 1.28 µM (inactive) | 2.39 µM (inactive) | 0.474 µM (active)
CC(=O)OCC1OC(n2c3c(cc(C#N)c2=S)CCCCC3)C(OC(C)=O)C(OC(C)=O)C1OC(C)=O (stereo not given) | > 100 µM (inactive) | 99.1 µM (inactive) | > 100 µM (inactive) | > 100 µM (inactive) | > 100 µM (inactive) | > 100 µM (inactive) | > 100 µM (inactive) | > 100 µM (inactive) | > 100 µM (inactive) | > 100 µM (inactive) | > 100 µM (inactive) | > 100 µM (inactive) | > 100 µM (inactive) | > 100 µM (inactive) | > 100 µM (inactive) | > 100 µM (inactive) | > 100 µM (inactive) | > 100 µM (inactive) | > 100 µM (inactive) | > 100 µM (inactive)
CC(C)c1ccc2c(c1)[C@@]1(C)CC[C@H](C)C(C)(C)C1CC2 (stereo not given in full) | 18.4 µM (inactive) | 17.2 µM (inactive) | 20.1 µM (inactive) | 23.4 µM (inactive) | 16.9 µM (inactive) | 17.4 µM (inactive) | 17.5 µM (inactive) | 18.9 µM (inactive) | 32.2 µM (inactive) | 18.5 µM (inactive) | 15.9 µM (inactive) | 23.7 µM (inactive) | 18 µM (inactive) | 17.2 µM (inactive) | 37.9 µM (inactive) | 18.1 µM (inactive) | 17.6 µM (inactive) | 19.5 µM (inactive) | 26.4 µM (inactive) | 27.4 µM (inactive)
O=[N+]([O-])c1sc2ccc(Cl)cc2c1Nc1ccc(Cl)cc1 | > 100 µM (inactive) | > 100 µM (inactive) | > 100 µM (inactive) | > 100 µM (inactive) | > 100 µM (inactive) | > 100 µM (inactive) | > 100 µM (inactive) | > 100 µM (inactive) | > 100 µM (inactive) | > 100 µM (inactive) | 2.55 µM (inactive) | > 100 µM (inactive) | > 100 µM (inactive) | > 100 µM (inactive) | > 100 µM (inactive) | > 100 µM (inactive) | > 100 µM (inactive) | > 100 µM (inactive) | > 100 µM (inactive) | > 100 µM (inactive)
C/C1=C/C2OC(=O)C3(C)C2C(CC2(C)OC1=CC2=O)OC3(O)C(C)C (stereo not given) | 21.8 µM (inactive) | > 61.1 µM (inactive) | 36.6 µM (inactive) | 41.4 µM (inactive) | 38.3 µM (inactive) | > 56 µM (inactive) | > 37.4 µM (inactive) | 37 µM (inactive) | 32.7 µM (inactive) | 33.5 µM (inactive) | 25.1 µM (inactive) | 23.6 µM (inactive) | 27 µM (inactive) | 43.7 µM (inactive) | 84.1 µM (inactive) | 26.1 µM (inactive) | 41.5 µM (inactive) | > 100 µM (inactive) | 29.4 µM (inactive) | 14.8 µM (inactive)
N#CCCN(CCC#N)c1ccc(/C=C2\SC(=S)NC2=O)cc1 | > 100 µM (inactive) | 50.2 µM (inactive) | > 100 µM (inactive) | > 100 µM (inactive) | > 100 µM (inactive) | > 100 µM (inactive) | 37.9 µM (inactive) | > 100 µM (inactive) | > 100 µM (inactive) | > 100 µM (inactive) | 30.8 µM (inactive) | > 100 µM (inactive) | > 100 µM (inactive) | > 100 µM (inactive) | > 100 µM (inactive) | 30 µM (inactive) | 85.3 µM (inactive) | 30.3 µM (inactive) | > 100 µM (inactive) | > 100 µM (inactive)
O=C1c2ccccc2C(=O)c2oc(Br)cc21 | 1.75 µM (inactive) | 0.256 µM (active) | 1.92 µM (inactive) | 0.684 µM (active) | 0.159 µM (active) | 0.344 µM (active) | 1.49 µM (inactive) | 0.161 µM (active) | 2.12 µM (inactive) | 0.127 µM (active) | 1.87 µM (inactive) | 1.95 µM (inactive) | 1.23 µM (inactive) | 0.46 µM (active) | 1.47 µM (inactive) | 1.57 µM (inactive) | 2.9 µM (inactive) | 2.65 µM (inactive) | 0.578 µM (active) | 1.55 µM (inactive)
O=C1c2ccccc2-c2ccc(NC(=O)C3CCCCC3C(=O)O)cc21 (stereo not given) | > 100 µM (inactive) | > 100 µM (inactive) | > 100 µM (inactive) | > 100 µM (inactive) | > 100 µM (inactive) | > 100 µM (inactive) | > 100 µM (inactive) | > 100 µM (inactive) | > 100 µM (inactive) | > 100 µM (inactive) | > 100 µM (inactive) | > 100 µM (inactive) | > 100 µM (inactive) | 85.5 µM (inactive) | > 100 µM (inactive) | > 100 µM (inactive) | > 100 µM (inactive) | > 100 µM (inactive) | > 100 µM (inactive) | > 100 µM (inactive)
N#CC1(Nc2ccc(-c3ccc(NC4(C#N)CCCC4)cc3)cc2)CCCC1 | > 100 µM (inactive) | > 100 µM (inactive) | > 100 µM (inactive) | 11.8 µM (inactive) | > 100 µM (inactive) | > 100 µM (inactive) | > 100 µM (inactive) | > 100 µM (inactive) | > 100 µM (inactive) | > 100 µM (inactive) | > 100 µM (inactive) | 0.0104 µM (active) | > 100 µM (inactive) | > 100 µM (inactive) | > 100 µM (inactive) | > 100 µM (inactive) | > 100 µM (inactive) | > 100 µM (inactive) | > 100 µM (inactive) | > 100 µM (inactive)
OC(c1cc(C23CC4CC(CC(C4)C2)C3)nc2c(Cl)cc(Cl)cc12)C1CCCCN1 (stereo not given) | 1.77 µM (inactive) | 1.73 µM (inactive) | 1.71 µM (inactive) | 2.13 µM (inactive) | 1.67 µM (inactive) | 1.82 µM (inactive) | 1.6 µM (inactive) | 1.8 µM (inactive) | 1.51 µM (inactive) | 1.81 µM (inactive) | 1.69 µM (inactive) | 0.743 µM (active) | 1.67 µM (inactive) | 1.6 µM (inactive) | 0.204 µM (active) | 1.57 µM (inactive) | 1.84 µM (inactive) | 1.82 µM (inactive) | 1.87 µM (inactive) | 1.57 µM (inactive)
